Consider three molecules from paper PMC3362486 (Chemico-Biological Interactions, 2012).

Data set [1] has as its target T1, CYP2A6 (Homo sapiens, UniProt P11509).
T1 sequence (P11509 1-494): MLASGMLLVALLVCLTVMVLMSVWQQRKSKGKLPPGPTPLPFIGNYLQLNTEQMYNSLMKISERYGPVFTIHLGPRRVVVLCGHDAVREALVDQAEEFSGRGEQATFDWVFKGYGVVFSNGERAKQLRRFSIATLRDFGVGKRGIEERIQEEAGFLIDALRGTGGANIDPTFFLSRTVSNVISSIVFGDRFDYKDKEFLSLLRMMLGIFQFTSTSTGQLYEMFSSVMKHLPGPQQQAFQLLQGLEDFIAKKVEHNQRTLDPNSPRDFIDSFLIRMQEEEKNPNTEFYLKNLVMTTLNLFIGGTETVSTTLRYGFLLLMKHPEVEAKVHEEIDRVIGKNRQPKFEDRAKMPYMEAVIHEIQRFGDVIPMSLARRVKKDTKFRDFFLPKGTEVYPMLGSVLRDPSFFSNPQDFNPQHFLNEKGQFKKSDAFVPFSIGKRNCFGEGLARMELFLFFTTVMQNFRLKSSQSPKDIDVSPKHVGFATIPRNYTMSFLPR
The experiment in a line: biochemical. Format: biochemical.

Data set [2] has as its target T2, CYP2A13 (Homo sapiens, UniProt Q16696).
T2 sequence (Q16696 1-494): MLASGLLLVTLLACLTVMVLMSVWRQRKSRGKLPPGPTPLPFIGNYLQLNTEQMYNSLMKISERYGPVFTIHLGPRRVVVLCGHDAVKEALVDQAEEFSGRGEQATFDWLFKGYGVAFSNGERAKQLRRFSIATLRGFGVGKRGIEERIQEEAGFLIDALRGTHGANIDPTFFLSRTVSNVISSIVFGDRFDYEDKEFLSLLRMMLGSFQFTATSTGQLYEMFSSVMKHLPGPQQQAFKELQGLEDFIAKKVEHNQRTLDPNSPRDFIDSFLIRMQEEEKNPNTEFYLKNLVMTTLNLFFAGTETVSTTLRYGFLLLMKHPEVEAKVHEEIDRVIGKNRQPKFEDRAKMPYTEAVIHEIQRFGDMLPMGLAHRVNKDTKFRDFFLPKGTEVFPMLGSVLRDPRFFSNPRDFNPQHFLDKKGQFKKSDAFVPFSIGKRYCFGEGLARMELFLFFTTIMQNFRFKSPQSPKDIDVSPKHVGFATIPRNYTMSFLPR
The experiment in a line: biochemical.

The target in data set [3] is T1, CYP2A6. Format: biochemical.
The target of data set [4] is T2, CYP2A13. The experiment in a line: in vitro. In kind it is biochemical. As to conditions: for activity at 10 min, 20 µM: human, pH 7.4, probe coumarin (7-hydroxylation), 20 μM in the secondary reaction.
In data set [5] the target is T1, CYP2A6. The experiment in a line: Effect of NADPH and trapping agents. Format: biochemical. As to conditions: for Percent Activity Remaining (10 min relative to 0 min): menthofuran 5 μM or β-nicotyrine 20 μM.
Data set [6] deals with T1, CYP2A6. The experiment in a line: CYP2A6 inactivation kinetics and partition ratio. In kind it is biochemical.
Data set [7] has as its target T1, CYP2A6. The experiment in a line: Irreversibility of CYP2A6 inactivation. Format: biochemical.
Data set [8] addresses T1, CYP2A6. As to conditions: cited from earlier work.
The target in data set [9] is T2, CYP2A13. As to conditions: cited from earlier work.

A word on the Ki: it is a measure of affinity in units of concentration, obtained from inhibition or displacement. Low readings indicate a stronger hold on the target, high ones a looser hold on the target. As to `Cc1coc2c1CC[C@@H](C)C2` [Menthofuran, 3,6R-dimethyl-4,5,6,7-tetrahydro-1-benzofuran], the results for the Ki on CYP2A6 [1] and on CYP2A13 [2] were 0.29 ± 0.05 µM and 1.24 ± 0.26 µM, respectively. For the same molecule, the “Loss of CYP2A6 coumarin 7-hydroxylation activity” value on CYP2A6 [3] (inhibitor 20 μM, in the presence of NADPH) is 95%. Moreover, at CYP2A13 [4], the activity at 10 min, 20 µM came to 91 ± 5%. Further, the “Loss of CYP2A13 activity” value at CYP2A13 [4] (inhibitor 20 μM with NADPH) is “no significant loss”. In addition, the “Loss of CYP2A13-catalyzed coumarin 7-hydroxylation at higher concentration” value on CYP2A13 [4] (menthofuran 200 μM or 30 min incubations, data not shown) was “no loss”. Moreover, the results for the “Percent Activity Remaining (10 min relative to 0 min)” value on CYP2A6 [5] (inhibitor + NADPH + glutathione (10mM)), on CYP2A6 [5] (inhibitor + NADPH + semicarbazide (10mM)) and on CYP2A6 [5] (inhibitor + NADPH) were 48%, 40% and 43%, respectively. Moreover, at CYP2A6 [5] (menthofuran 5 μM or β-nicotyrine 20 μM with NADPH, 10 min), the “Loss of CYP2A6 enzyme activity” value is given as “about 60%”. The “KI for inactivation of CYP2A6, fold lower than that of β-nicotyrine” value at CYP2A6 [6] is ~50 fold. Also, on CYP2A6 [6] (calculated partition ratio), the “Partition ratio, times higher than for β-nicotyrine-mediated inactivation” value is reported as ~ 3.5 times. Further, the “Reversibility of CYP2A6 inactivation upon removal of unbound small molecules” value at CYP2A6 [7] is reported as “not reversible”.

On to `CC(C)[C@@H]1CC[C@@H](C)C[C@H]1O` [Menthol, (1R,2S,5R)-2-isopropyl-5-methylcyclohexanol], for which the affinity at CYP2A6 [1], expressed as Ki, was 110 ± 10.7 µM. For the same molecule, the “Inhibition of CYP2A6, times less potent than menthofuran and β-nicotyrine” value on CYP2A6 [1] (comparison of KI values) came to 100 times. The “Inactivation of CYP2A6 (in words)” value on CYP2A6 [3] (inhibitor 20 μM with NADPH) is given as “no indication”. For the same molecule, at CYP2A13 [4], the activity at 10 min, 20 µM was 87 ± 11%. Further, on CYP2A13 [4] (inhibitor 20 μM with NADPH), the “Inactivation of CYP2A13 (in words)” value is listed as “no indication”. Also, the “Inhibition of CYP2A6 (in words)” value on CYP2A6 [8] is “weak inhibitor”.

On to `CN(CCCC(=O)c1cccnc1)N=O` [NNK, 4-(methylnitrosamino)-1-(3-pyridyl)-1-butanone], for which, on CYP2A13 [9], the “Catalytic efficiency (kcat/Km) of metabolic activation, CYP2A13 versus CYP 2A6” value is 200 fold.
